Activity calls are given as the source filed them. Positions of bridges follow the written chain, without caps; N, C: chain ends. Non-standard residues stand in square brackets, D forms with d. Residues, ends and D or L forms follow the SMILES beside them. Chains are numbered I, II in the order given. *: point of attachment. 2Nal = N[C@@H](Cc1ccc2ccccc2c1)C(=O)O; Val(3-OH) = CC(C)(O)[C@H](N)C(=O)O; Tle = CC(C)(C)[C@H](N)C(=O)O; X1 = O=C(c1ccnc(Cl)c1Cl)*; AEEA = NCCOCCOCC(=O)O
Experiments:
[1] = Stability in 25% human serum assessed as compound degradation at 5 uM at 37 degC incubated for 24 hrs by HPLC analysis; assay type: ADME, cell-free; conditions: serum, 24 h, 5 µM
HeLa = assay: Toxicity in human HeLa cells assessed as reduction in cell viability up to 25 uM incubated for 72 hrs by MTT assay; assay type: cell-based
Macrophage [2] = assay: Inhibition of calcineurin-NFATc3 interaction in mouse lung macrophages assessed as reduction in LPS-induced TNFalpha production at 0.1 to 10 uM pre-incubated 4 hrs before LPS stimulation for 8 hrs by ELISA; assay type: tissue-based; conditions: DISRUPTING AGENT, dose microM 0.1-10, time 12.0 hrs
Macrophage [3] = assay: Inhibition of calcineurin-NFATc3 interaction in mouse lung macrophages assessed as reduction in LPS-induced IL6 production at 0.1 to 10 uM pre-incubated 4 hrs before LPS stimulation for 8 hrs by ELISA; assay type: tissue-based; conditions: DISRUPTING AGENT, dose microM 0.1-10, time 12.0 hrs
[4] = Clearance in C57BL/6 mouse assessed as clearance time at 5 mg/kg using TMR-labeled compound instilled into both nostrils by flow cytometry; assay type: ADME, organism-based; conditions: in vivo, inhaled_or_intranasal
[5] = Toxicity in mouse lung macrophages cells assessed as reduction in cell viability up to 25 uM incubated for 72 hrs by MTT assay; assay type: tissue-based; conditions: macrophage
[6] = Drug uptake in human HCT-116 cells spheroids at 5 uM incubated for 4 to 24 hrs by MALDI-TOF-TOF mass spectrometry; assay type: ADME, cell-based; conditions: hct-116, 5 µM, TDE = time-dependent effect, time 4-24 hrs
[7] = Stability in mouse liver microsomes assessed as compound degradation at 100 uM incubated up to 60 mins in presence of NADPH by LC-MS/MS analysis; assay type: ADME, Microsome; conditions: 1 h, TDE = time-dependent effect
[8] = Plasma concentration in BALB/c mouse at 5 mg/kg, iv after 8 hrs by LC-MS/MS analysis; assay type: ADME, organism-based
[9] = Drug metabolism in BALB/c mouse plasma at 5 mg/kg, iv after 8 hrs by LC-MS/MS analysis; assay type: ADME, organism-based; conditions: in vivo
[10] = Drug distribution in BALB/c mouse kidney at 0.6 mg/kg, iv using compound labelled with cyanine-5 measured after 24 hrs by fluorescence based assay; assay type: ADME, organism-based; conditions: in vivo
[11] = Drug distribution in BALB/c mouse spleen at 0.6 mg/kg, iv using compound labelled with cyanine-5 measured after 24 hrs by fluorescence based assay; assay type: ADME, organism-based; conditions: in vivo
[12] = Drug distribution in BALB/c mouse heart at 0.6 mg/kg, iv using compound labelled with cyanine-5 measured after 24 hrs by fluorescence based assay; assay type: ADME, organism-based; conditions: read-out: Drug uptake
[13] = Drug distribution in BALB/c mouse lymph nodes at 0.6 mg/kg, iv using compound labelled with cyanine-5 measured after 24 hrs by fluorescence based assay; assay type: ADME, organism-based, Lymph node; conditions: read-out: Drug uptake
[14] = Drug distribution in BALB/c mouse muscle at 0.6 mg/kg, iv using compound labelled with cyanine-5 measured after 24 hrs by fluorescence based assay; assay type: ADME, organism-based, Muscle tissue; conditions: in vivo
[15] = Drug distribution in BALB/c mouse kidney at […], ip using compound labelled with cyanine-5 measured after 24 hrs by fluorescence based assay; assay type: ADME, organism-based; conditions: in vivo, dose 2.4 mg/kg
[16] = Drug distribution in BALB/c mouse plasma at […], ip using compound labelled with cyanine-5 measured after 24 hrs by fluorescence based assay; assay type: ADME, organism-based; conditions: in vivo, dose 2.4 mg/kg
[17] = Drug distribution in BALB/c mouse muscle at […], ip using compound labelled with cyanine-5 measured after 24 hrs by fluorescence based assay; assay type: ADME, organism-based, Muscle tissue; conditions: in vivo, dose 2.4 mg/kg
[18] = Drug distribution in BALB/c mouse monocytes at […], ip using compound labelled with cyanine-5 measured after 24 hrs by flow cytometry; assay type: ADME, organism-based, Monocyte; conditions: in vivo, dose 2.4 mg/kg
[19] = Drug distribution in BALB/c mouse Non-T and B lymphocytes at […], ip using compound labelled with cyanine-5 measured after 24 hrs by flow cytometry; assay type: ADME, organism-based, Lymphocyte; conditions: in vivo, dose 2.4 mg/kg
[20] = Drug distribution in BALB/c mouse spleen at […], sc using compound labelled with cyanine-5 measured after 24 hrs by fluorescence based assay; assay type: ADME, organism-based; conditions: in vivo, dose 2.4 mg/kg
[21] = Drug distribution in BALB/c mouse lung at […], sc using compound labelled with cyanine-5 measured after 24 hrs by fluorescence based assay; assay type: ADME, organism-based; conditions: dose 2.4 mg/kg, read-out: Drug uptake
[22] = Drug distribution in BALB/c mouse lymph nodes at […], sc using compound labelled with cyanine-5 measured after 24 hrs by fluorescence based assay; assay type: ADME, organism-based, Lymph node; conditions: dose 2.4 mg/kg, read-out: Drug uptake
[23] = Drug distribution in BALB/c mouse neutrophils at […], sc using compound labelled with cyanine-5 measured after 24 hrs by flow cytometry; assay type: ADME, organism-based, Neutrophil; conditions: in vivo, dose 2.4 mg/kg
[24] = Drug distribution in BALB/c mouse monocytes at […], sc using compound labelled with cyanine-5 measured after 24 hrs by flow cytometry; assay type: ADME, organism-based, Monocyte; conditions: in vivo, dose 2.4 mg/kg
Mus musculus [25] = assay: Anti-inflammatory activity in BALB/c mouse model of LPS-induced ALI assessed as reduction in LPS-induced BALF protein levels at 5 mg/kg, iv pre-treated 4 hrs before LPS stimulation for 16 hrs; assay type: functional, organism-based; conditions: time 20.0 hrs
Mus musculus [26] = assay: Anti-inflammatory activity in BALB/c mouse model of LPS-induced ALI assessed as reduction in LPS-induced IL6 in BALF at 5 mg/kg, iv pre-treated 4 hrs before LPS stimulation for 16 hrs; assay type: functional, organism-based; conditions: time 20.0 hrs
Mus musculus [27] = assay: Anti-inflammatory activity in BALB/c mouse model of LPS-induced ALI assessed as reduction in LPS-induced TNFalpha in BALF at 5 mg/kg, iv pre-treated 4 hrs before LPS stimulation for 16 hrs; assay type: functional, organism-based; conditions: time 20.0 hrs
Mus musculus [28] = assay: Anti-inflammatory activity in BALB/c mouse model of LPS-induced ALI assessed as reduction in LPS-induced lung wet-to-dry ratios at 3 mg/kg dosed via intranasal instillation pre-treated 2 hrs before LPS stimulation for 6 hrs and measured at 24 hrs; assay type: functional, organism-based
Mus musculus [29] = assay: Anti-inflammatory activity in BALB/c mouse model of LPS-induced ALI assessed as reduction in LPS-induced IL6 in BALF at 3 mg/kg dosed via intranasal instillation pre-treated 2 hrs before LPS stimulation for 6 hrs and measured at 24 hrs; assay type: functional, organism-based
Mus musculus [30] = assay: Anti-inflammatory activity in BALB/c mouse model of LPS-induced ALI assessed as reduction in LPS-induced TNFalpha in BALF at 3 mg/kg dosed via intranasal instillation pre-treated 2 hrs before LPS stimulation for 6 hrs and measured at 24 hrs; assay type: functional, organism-based
Mus musculus [31] = assay: Anti-inflammatory activity in BALB/c mouse model of LPS-induced ALI assessed as reduction in LPS-induced BALF protein levels at 0.3 to 3 mg/kg dosed via intranasal instillation pre-treated 2 hrs before LPS stimulation for 6 hrs; assay type: functional
Mus musculus [32] = assay: Anti-inflammatory activity in BALB/c mouse model of LPS-induced ALI assessed as reduction in LPS-induced IL6 level in BALF at 0.3 to 3 mg/kg dosed via intranasal instillation pre-treated 2 hrs before LPS stimulation for 6 hrs; assay type: functional
Mus musculus [33] = assay: Anti-inflammatory activity in BALB/c mouse model of LPS-induced ALI assessed as reduction in LPS-induced TNFalpha in BALF at 0.3 to 3 mg/kg dosed via intranasal instillation pre-treated 2 hrs before LPS stimulation for 6 hrs; assay type: functional
[34] = dose mg/kg 0.3-3, time 8 hrs, read-out: MED

CC[C@H](C)[C@H](NC(=O)[C@@H](NC(=O)c1ccnc(Cl)c1Cl)C(C)(C)C)C(=O)N[C@H](C(=O)N[C@H](C(=O)N[C@H](C(=O)N[C@@H](CCC(N)=O)C(=O)N[C@@H](Cc1c[nH]cn1)C(=O)N[C@H](CC(C)C)C(=O)N[C@@H](CO)C(=O)NCCOCCOCC(=O)N[C@@H](CCCCNC(=O)CC[C@@H]1NC(=O)[C@@H](CCCNC(=N)N)NC(=O)[C@H](CCCNC(=N)N)NC(=O)[C@@H](CCCNC(=N)N)NC(=O)[C@H](CCCNC(=N)N)NC(=O)[C@H](Cc2ccc3ccccc3c2)NC(=O)[C@@H](Cc2ccccc2)NC1=O)C(N)=O)[C@@H](C)O)[C@@H](C)CC)C(C)(C)O (I: X1-[Tle]I[Val(3-OH)]ITQH[dL]S[AEEA]K-NH2 / II: cyclo([2Nal]R[dR]R[dR]E[dF]); amide I:11-II:6)
1 mg/kg: minimal effective dose (Mus musculus [31]; [34]) | minimal effective dose (Mus musculus [32]; [34]) | minimal effective dose (Mus musculus [33]; [34])
13.5 nM: concentration at 8 h [8]
Active: Drug uptake [10] | Drug uptake [11] | Drug uptake [15] | Drug uptake [18] | Drug uptake [19] | Drug uptake [20] | Drug uptake [23] | Drug uptake [24]
inactive: Activity (Mus musculus [28]) | Activity (Mus musculus [29]) | Activity (Mus musculus [30])
Metabolite_Detected: Drug metabolism [9]
> 50 nM: concentration at 24 h [12] | concentration at 24 h [13] | concentration at 24 h [21] | concentration at 24 h [22]
Tde: Drug uptake [6] | Drug degradation [7]
Stable: Stabilty [1]
active: inhibition (Macrophage [2]) Dose-dependent effect | inhibition (Macrophage [3]) Dose-dependent effect | Activity (Mus musculus [25]) | Activity (Mus musculus [26]) | Activity (Mus musculus [27]) | Activity (Mus musculus [31]; dose mg/kg 0.3-3, time 8.0 hrs) Dose-dependent effect | Activity (Mus musculus [32]; dose mg/kg 0.3-3, time 8.0 hrs) Dose-dependent effect | Activity (Mus musculus [33]; dose mg/kg 0.3-3, time 8.0 hrs) Dose-dependent effect
16 h: CL [4]
Non-Toxic: Activity (HeLa) | Activity [5]
Not Active: Drug uptake [14] | Drug uptake [16] | Drug uptake [17]

Reference: ChEMBL document CHEMBL4699579, “A Peptidyl Inhibitor that Blocks Calcineurin-NFAT Interaction and Prevents Acute Lung Injury” (J Med Chem, 2020)
